From patent US9101566B2, “Fermentation product of cereal plant-derived material and immunomodulator” (KIRIN HOLDINGS KABUSHIKI KAISHA, priority 2009, dated 2015)

Key:
[1] = test system: C57BL/6 mDCs co-cultured with OT-II mouse naive CD4+ T cells; assay: Cytokine profile of CD4+ T cells induced by DCs treated with 14-DHE, antigen-specific T cell reaction (Example 11); format: cell-based; settings: 0.1 μM OVA323-339 peptide, day 4, vs control mDCs
Procedure: mDCs were prepared by the method same as that in the MLR experiment. Naive CD4^+ T cells were prepared from OT-II mice (Charles River) in which TCR of CD4^+ T cells is specific for OVA323-339 epitope on the C57BL/6 background. Mixed culture was performed at a ratio of mDC:CD4^+ T cell of 1:5 in the presence of 0.1 μM OVA323-339 peptide. The culture supernatant was recovered on day 4 of culture, and then TNF-α, IFN-γ, IL-6, IL-10, and IL-17 were measured by ELISA.

[2] = test system: human DCs from peripheral blood CD14-positive cells; assay: Human regulatory DC-inducing activity of 14-DHE (Example 16); format: cell-based; settings: 14-DHE 1, 3 or 10 μM; ergosterol 10 μM; LPS/IFN-γ or cytokine cocktail 24 h
Procedure: Mononuclear cells were prepared from human peripheral blood by density-gradient centrifugation using Ficoll-Paque (GE Healthcare, Japan). These cells were subjected to positive selection using anti-human CD14 MACS beads (Miltenyi Biotec), so that CD14-positive cells were obtained. CD14-positive cells were cultured in RPMI1640 media (containing 10% FBS (Invitrogen), 50 μmol/L 2-mercaptoethanol (Wako Pure Chemical Industries, Japan), 50 U/mL penicillin, and 50 μg/mL streptomycin (Gibco) (Sigma Aldrich)) supplemented with recombinant human GM-CSF (800 U/mL, Leukine, Berlex) and recombinant human IL-4 (100 ng/mL, Peprotech). During culture, medium exchange was performed once every 2 days. On day 7 of culture, 14-DHE was added at a concentration of 1 μM, 3 μM, or 10 μM. To a control, 10 μM ergosterol, which was a related substance, was added. Also, to a negative control, 1% ethanol, which was a solvent for 14-DHE, was added. The cells were recovered on day 8 of culture, counted, and then suspended at a density of 3×10^5 cells/mL in the above media. To cell suspensions, 1 μg/mL LPS and 100 ng/mL IFN-γ (both, Sigma Aldrich), or cytokine cocktail (1 μg/mL PGE2 (Sigma Aldrich), 10 ng/mL TNF-α, 2 μg/mL IL-6, and 10 ng/mL IL-1β (3 (all, BD Bioscience)) were added, followed by 24-hour culture. After culture, the cells were stained for CD86, HLA-DR, and CD80. Antibodies used were all produced by BD Bioscience. The gate of DCs was set by FSC and SSC, and the expression levels of these cell surface markers were analyzed.

[3] = test system: mDCs treated with 14-DHE co-cultured with OVA-specific naive CD4+ T cells; assay: Antigen-specific Treg-inducing capacity of DCs treated with 14-DHE (Example 10); format: cell-based, mouse
Procedure: Various DCs were prepared similarly to (A). Next, naive CD4^+ T cells were sorted from DO11.10 mice (Charles River) having OVA-specific TCR, DCs were mixed with the sorted cells at DC:CD4^+ T=1:10 (the number of cells), and then the cells were co-cultured. At this time, the medium was supplemented with 0.5 ng/mL TGF-β1 and 0.1 μM OVA323-339 peptide and then culture was performed for 5 days. Subsequently, Treg generation efficiency was determined as in (A) above.
In a manner similar to that in Example 5, the Treg-inducing activity of mDCs treated with 14-DHE was measured. Similar measurement was also performed using DCs not treated with 14-DHE as a control.

[4] = test system: dendritic cells induced from C57BL/6 mouse bone marrow cells with Flt-3L (mDCs, CD11c+CD11b+); assay: Regulatory DC-inducing activity of 14-dehydroergosterol (Example 9); format: cell-based
Procedure: Regulatory DC induction activity was evaluated for 14-dehydroergosterol (14-DHE) isolated and purified from wheat bran fermented with koji as described above and subjected to structural determination. As controls, ergosterol (Wako Pure Chemical Industries, Japan) and 9(11)-dehydroergosterol (9(11)-DHE) (Sigma-Aldrich Corp.), which are ergosterol-related substances, were used. Also, as conjugated linoleic acid (CLA) that was reported in connection with the inhibition of DC activation in the past, CLA (9Z, 11E) and CLA (10E, 12Z) (both, Cayman Chemical), and linoleic acid (Wako Pure Chemical Industries, Japan) were also subjected to activity determination (J. Immunol., 175(8): 4990-8, Oct. 15, 2005). As negative controls, a sample (none) to which no compound had been administered and a sample (ctrl) to which only LPS had been administered were also subjected to activity determination.
In a manner similar to Example 2, bone marrow cells were prepared from C57BL/6 mouse thigh bone, and then dendritic cells were induced using Flt-3L. Each test substance was added simultaneously with the initiation of culture at a concentration of 1 μM, 5 μM, or 10 μM. Seven days later, LPS (from Salmonella typhosa) (Sigma-Aldrich Corp.) was added at 5 ng/mL and then 24 hours later the cells were recovered. Subsequently, the cells were stained for the following cell markers and then subjected to flow cytometry analysis. All antibodies used were produced by Becton, Dickinson and Company. CD11c^+CD11b^+ was set as a gate for mDCs and then the expression levels of CD40, CD80, CD86, I-A/I-E, and ICOS-L were measured. Also, IL-12p40 and IL-10 in culture supernatants were measured by ELISA.

[5] = test system: regional lymph node cells and spleen cells of EAE mice; assay: EAE model, day 11 autopsy: inflammatory cytokines produced by lymph node and spleen cells (ELISA); format: in vivo, mouse
Procedure: On day 0, the 35-55 peptide (MOG35-55, Operon), a glycoprotein of myelin oligodendroglial cells, as an antigen was mixed with complete Freund's adjuvant (CFA, Difco) and then the mixture was subcutaneously administered at a dose of 200 μg/animal. Subsequently, pertussis toxin (Wako Pure Chemical Industries, Japan) was intraperitoneally administered at a dose of 200 ng/animal on day 1 and day 3, thereby inducing the onset of multiple sclerosis. During days 7 to 18, 14-DHE was intraperitoneally administered at a dose of 10 μg/animal once a day. To the vehicle group, the following solvent for 14-DHE was administered: 10% ethanol (Wako Pure Chemical Industries, Japan)/10% Cremophor (Wako Pure Chemical Industries, Japan)/80% PBS (Takara, Japan).
Mice were autopsied on day 11 (when inflammation was thought to take place in vivo) to obtain biochemical data.
(1) Spleen cells were prepared and then cultured for 7 days with or without re-stimulation with 2 μM MOG. Culture supernatants were recovered. The amounts of produced IFN-γ and TNF-α were measured by ELISA.

[6] = 1, 5 or 10 μM, LPS 5 ng/mL 24 h
[7] = 1, 5 or 10 μM, LPS 5 ng/mL, culture supernatant
[8] = re-stimulation with MOG antigen

CC(C)[C@@H](C)/C=C/[C@@H](C)[C@H]1CC=C2C3=CC=C4C[C@@H](O)CC[C@]4(C)[C@H]3CC[C@@]21C [Sample 14-DHE, ergosta-5,7,14,22-tetraen-3β-ol]
IFN-γ production (ELISA) [1]: no statistically significant difference was observed
IL-6 production (ELISA) [1]: a significant decrease
IL-10 production (ELISA) [1]: significant increase
IL-17 production (ELISA) [1]: no statistically significant difference was observed
TNF-α production (ELISA) [1]: a significant decrease
expression level of CD80 on human DCs [2]: decreased
expression level of CD86 on human DCs [2]: decreased
expression level of MHC class II molecule HLA-DR on human DCs [2]: decreased
generation of Treg compared with the control [3]: about 2 times
expression level of CD40 [4, 6]: significantly decreased
expression level of CD80 [4, 6]: significantly decreased
expression level of CD86 [4, 6]: significantly decreased
expression level of ICOS-L marker [4, 6]: remained almost unchanged
expression level of MHC class II molecule I-A/I-E [4, 6]: significantly decreased
expression of anti-inflammatory cytokine IL-10 (ELISA) [4, 7]: slightly increased
expression of inflammatory cytokine IL-12p40 (ELISA) [4, 7]: drastically decreased
effective concentration on DCs ([4]; DCs): 1 µM
IFN-γ production from regional lymph node cells ([5]; not re-stimulated with MOG antigen): significantly decrease
TNF-α production from spleen cells ([5]; re-stimulated with MOG antigen): decreased
IFN-γ production from regional lymph node cells [5, 8]: decreasing trend
IFN-γ production from spleen cells [5, 8]: decreasing trend
TNF-α production from regional lymph node cells ([5]; with or without re-stimulation with MOG antigen): significantly decreased
